Earlier results in patent US20050084507A1, “Liquid preparations and surfactant/solvent systems” (priority 1999, published 2005).
Converted amounts (≈) assume the structure as drawn.

SMILES: CCOC1Oc2ccc(OS(C)(=O)=O)cc2C1(C)C (stereo not shown) [ethofumesate]
- solubility in water: 50 µg/mL (≈ 175 µM)
